Source: ChEMBL document CHEMBL3784915, “Design and synthesis of novel benzo[d]oxazol-2(3H)-one derivatives bearing 7-substituted-4-enthoxyquinoline moieties as c-Met kinase inhibitors” (Eur J Med Chem, 2016)
pIC50: −log10 of the molar value.

Biological target: Hepatocyte growth factor receptor (Homo sapiens, UniProt P08581)
Test: Inhibition of N-terminal 6His-tagged human recombinant c-MET expressed in baculovirus infected Sf21 cells using poly Ala-Glu-Lys-Tyr (6:2:5:1) as substrate after 3 hrs by scintillation counting in presence of [33P]-ATP
Conditions: not given

Sequence of Hepatocyte growth factor receptor (P08581 whole entry): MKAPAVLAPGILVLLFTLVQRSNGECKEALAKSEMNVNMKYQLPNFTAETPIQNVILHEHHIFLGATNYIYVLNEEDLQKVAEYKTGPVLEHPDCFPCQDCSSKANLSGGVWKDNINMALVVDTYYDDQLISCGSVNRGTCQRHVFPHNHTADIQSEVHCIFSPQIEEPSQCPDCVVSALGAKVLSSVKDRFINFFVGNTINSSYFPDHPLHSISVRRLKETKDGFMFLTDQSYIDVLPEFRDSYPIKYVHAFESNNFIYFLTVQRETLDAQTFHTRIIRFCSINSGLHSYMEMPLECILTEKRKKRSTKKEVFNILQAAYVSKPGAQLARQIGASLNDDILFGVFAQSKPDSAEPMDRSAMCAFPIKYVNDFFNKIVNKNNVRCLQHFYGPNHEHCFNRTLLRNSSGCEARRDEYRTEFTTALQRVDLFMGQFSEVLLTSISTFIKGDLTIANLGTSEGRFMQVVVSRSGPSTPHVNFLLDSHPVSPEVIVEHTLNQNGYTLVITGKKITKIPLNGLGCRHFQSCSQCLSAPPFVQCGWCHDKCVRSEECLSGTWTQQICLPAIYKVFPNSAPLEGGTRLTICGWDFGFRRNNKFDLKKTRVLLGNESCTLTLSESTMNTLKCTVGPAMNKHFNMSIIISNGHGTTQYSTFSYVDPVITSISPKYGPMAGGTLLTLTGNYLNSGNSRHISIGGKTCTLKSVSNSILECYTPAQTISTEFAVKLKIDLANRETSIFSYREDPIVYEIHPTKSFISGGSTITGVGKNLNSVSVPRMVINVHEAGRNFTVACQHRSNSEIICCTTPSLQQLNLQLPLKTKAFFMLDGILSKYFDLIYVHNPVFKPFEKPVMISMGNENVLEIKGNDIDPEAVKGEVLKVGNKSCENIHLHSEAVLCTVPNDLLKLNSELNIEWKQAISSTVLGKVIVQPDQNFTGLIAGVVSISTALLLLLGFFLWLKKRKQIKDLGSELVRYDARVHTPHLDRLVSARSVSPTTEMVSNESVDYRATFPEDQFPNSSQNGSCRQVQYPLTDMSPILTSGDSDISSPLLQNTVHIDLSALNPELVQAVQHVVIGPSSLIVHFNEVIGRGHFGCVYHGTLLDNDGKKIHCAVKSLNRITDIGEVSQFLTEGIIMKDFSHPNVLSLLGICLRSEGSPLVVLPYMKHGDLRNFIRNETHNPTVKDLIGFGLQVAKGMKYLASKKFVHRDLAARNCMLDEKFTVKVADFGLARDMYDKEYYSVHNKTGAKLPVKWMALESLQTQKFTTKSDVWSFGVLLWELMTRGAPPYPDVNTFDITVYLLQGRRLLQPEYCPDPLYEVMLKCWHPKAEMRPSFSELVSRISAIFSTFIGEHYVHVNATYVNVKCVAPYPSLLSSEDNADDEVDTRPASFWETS

Row | pIC50 | Structure (SMILES)
1 | 5.80 | Cc1ccc2c(c1)oc(=O)n2Cc1cccc(NC(=O)OCCCN2CCOCC2)c1

System: not listed separately
Test: cells
Conditions: Homo sapiens, EBC-1, 72 h
Description: Cytotoxicity against human EBC1 cells assessed as inhibition of cell proliferation after 72 hrs by sulforhodamine B assay

Row | Structure (SMILES) | pIC50
2 | CN1CCN(CCCOC(=O)Nc2cccc(Cn3nc(-n4ccc5ccc(F)cc54)ccc3=O)c2)CC1 | 6.17
3 | Cc1ccc2c(c1)oc(=O)n2CCOc1ccnc2cc(OCCCN3CCN(C)CC3)ccc12 | 6.77
4 | Cc1ccc2c(c1)oc(=O)n2CCOc1ccnc2cc(OCCCCN3CCOCC3)ccc12 | 6.48
5 | Cc1ccc2c(c1)oc(=O)n2CCOc1ccnc2cc(NCCCN3CCOCC3)ccc12 | 7.24
6 | Cc1ccc2c(c1)oc(=O)n2CCOc1ccnc2cc(OCCCN3CCCC3)ccc12 | < 6.30
7 | Cn1cc(-c2ccc3c(OCCn4c(=O)oc5cc(-c6cnn(C)c6)ccc54)ccnc3c2)cn1 | 8.30
8 | Cc1ccc2c(c1)oc(=O)n2CCOc1ccnc2cc(OCCCN3CCOCC3)ccc12 | 6.77
9 | Cc1ccc2c(c1)oc(=O)n2Cc1cccc(NC(=O)OCCCN2CCOCC2)c1 | 5.80
10 | C[C@@H](Oc1cc(-c2cnn(C3CCNCC3)c2)cnc1N)c1c(Cl)ccc(F)c1Cl [CRIZOTINIB] | 7.36

Other lines, results leading:

Row | pIC50 | Structure (SMILES)
11 | < 6.30 | COC(=O)c1ccc2c(c1)oc(=O)n2CCOc1ccnc2cc(OC)ccc12
12 | 6.80 | COc1ccc2c(OCCn3c(=O)oc4cc(N)ccc43)ccnc2c1
13 | < 6.30 | COCCOc1ccc2c(OCCn3c(=O)oc4cc(C)ccc43)ccnc2c1
14 | < 6.30 | COc1ccc2c(OCCn3c(=O)oc4cc(F)ccc43)ccnc2c1
15 | < 6.30 | COc1ccc2c(OCCn3c(=O)oc4ccc(C)cc43)ccnc2c1
16 | 6.92 | Cc1ccc2c(c1)oc(=O)n2CCOc1ccnc2cc(OCCN3CCOCC3)ccc12
17 | < 6.30 | COc1ccc2c(OCCn3c(=O)oc4ccc(-c5cnn(C)c5)cc43)ccnc2c1
18 | < 6.30 | COC(=O)c1ccc2oc(=O)n(CCOc3ccnc4cc(OC)ccc34)c2c1
19 | < 6.30 | COc1ccc2c(OCCn3c(=O)oc4cc(C)ccc43)ccnc2c1
20 | < 6.30 | COc1ccc2c(OCCn3c(=O)oc4cc(N5CCOCC5)ccc43)ccnc2c1
21 | < 6.30 | COc1ccc2c(OCCn3c(=O)oc4ccc(F)cc43)ccnc2c1
22 | 7.00 | COc1ccc2c(OCCn3c(=O)oc4cc(-c5cnn(C)c5)ccc43)ccnc2c1
23 | < 6.30 | COc1ccc2c(OCCn3c(=O)oc4cc(OC)ccc43)ccnc2c1
24 | 7.46 | Cc1ccc2c(c1)oc(=O)n2CCOc1ccnc2cc(-c3cnn(C)c3)ccc12
